Compound: CC1=C(N=C(N=C1N)[C@H](CC(=O)N)NC[C@@H](C(=O)N)N)C(=O)N[C@@H]([C@H](C2=CN=CN2)OC3C(C(C(C(O3)CO)O)O)OC4C(C(C(C(O4)CO)O)OC(=O)N)O)C(=O)N[C@H](C)[C@H]([C@H](C)C(=O)N[C@@H]([C@@H](C)O)C(=O)NCCC5=NC(=CS5)C6=NC(=CS6)C(=O)NCCC[S+](C)C)O [Bleomycin] + COc1cccc2cc(-c3nc([C@H]4CC[C@H](C(=O)O)CC4)n4ncnc(N)c34)[nH]c12 [OSI-027] (partner 0.5 µM)
Test: relative viability (nuclei count vs DMSO), 5 days (fraction); higher = more cells survive
Settings: first compound 1 µM; main component drawn
Outline: (§1)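 Lung cancer cell lines, seeded in 1536-well plates, were treated the following day by pin tool with a single drug or with five library-drug doses (not always all listed) in √10 steps on top of a fixed anchor-drug dose. Cells were fixed and nuclei stained in one step after 5 days, and nuclei were counted. Relative viability is the nuclei count for treated wells divided by that for vehicle wells, reported as medians of duplicate plates.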

Cell Line | relative viability
SK-LU-1 | 0.206
ABC-1 | 0.212

Compound: COc1cc([C@@H]2c3cc4c(cc3[C@@H](O[C@@H]3O[C@@H]5CO[C@@H](C)O[C@H]5[C@H](O)[C@H]3O)[C@H]3COC(=O)[C@H]23)OCO4)cc(OC)c1O [Etoposide] + N=C(N)NC(=N)NCCc1ccccc1 [Phenformin] (partner 250 µM)
Test: as above
Settings: first compound 0.01 µM
Outline: as §1

Cell Line | relative viability
NCI-H520 | 0.487
NCI-H2405 | 0.381
SW 1573 | 0.341
NCI-H1395 | 0.464
201T | 0.45
NCI-H1915 | 0.38
HCC-827 | 0.413
LXF-289 | 0.568
NCI-H2347 | 0.39
NCI-H650 | 0.445
CAL-12T | 0.594
NCI-H1651 | 0.293
EPLC-272H | 0.281
NCI-H23 | 0.822
NCI-H1792 | 0.177
NCI-H1355 | 0.452
NCI-H322M | 0.766
NCI-H1437 | 0.265
NCI-H1755 | 0.63
NCI-H2023 | 0.403
HCC-15 | 0.496
NCI-H1793 | 0.329
PC-3 [JPC-3] | 0.456
EKVX | 0.262
LC-2-ad | 0.602
NCI-H1944 | 0.189
NCI-H1975 | 0.398
SK-LU-1 | 0.476
ABC-1 | 0.239

Same assay, conditions: first compound 0.03162 µM

Cell Line | relative viability
NCI-H520 | 0.585
NCI-H2405 | 0.432
SW 1573 | 0.36
NCI-H1395 | 0.415
201T | 0.51
NCI-H1915 | 0.361
HCC-827 | 0.412
LXF-289 | 0.534
NCI-H2347 | 0.446
NCI-H650 | 0.508
CAL-12T | 0.612
NCI-H1651 | 0.351
EPLC-272H | 0.308
NCI-H23 | 0.834
NCI-H1792 | 0.189
NCI-H1355 | 0.493
NCI-H322M | 0.881
NCI-H1437 | 0.342
NCI-H1755 | 0.671
NCI-H2023 | 0.385
HCC-15 | 0.526
NCI-H1793 | 0.47
PC-3 [JPC-3] | 0.453
EKVX | 0.271
LC-2-ad | 0.559
NCI-H1944 | 0.275
NCI-H1975 | 0.486
SK-LU-1 | 0.605
ABC-1 | 0.244

Same assay, conditions: first compound 0.1 µM

Cell Line | relative viability
NCI-H2405 | 0.415
SW 1573 | 0.255
NCI-H1395 | 0.473
201T | 0.381
NCI-H1915 | 0.429
HCC-827 | 0.338
LXF-289 | 0.585
NCI-H2347 | 0.345
NCI-H650 | 0.394
CAL-12T | 0.586
NCI-H1651 | 0.286
EPLC-272H | 0.267
NCI-H23 | 0.633
NCI-H1355 | 0.408
NCI-H322M | 0.658
NCI-H1437 | 0.357
NCI-H1755 | 0.597
NCI-H2023 | 0.307
HCC-15 | 0.429
PC-3 [JPC-3] | 0.478
EKVX | 0.196
LC-2-ad | 0.456
NCI-H1944 | 0.213
NCI-H1975 | 0.382
SK-LU-1 | 0.322
ABC-1 | 0.241

Same assay, conditions: first compound 0.3162 µM

Cell Line | relative viability
NCI-H520 | 0.619
NCI-H2405 | 0.364
SW 1573 | 0.183
NCI-H1395 | 0.441
201T | 0.368
NCI-H1915 | 0.346
HCC-827 | 0.315
LXF-289 | 0.421
NCI-H2347 | 0.247
NCI-H650 | 0.363
CAL-12T | 0.409
NCI-H1651 | 0.205
EPLC-272H | 0.263
NCI-H23 | 0.392
NCI-H1792 | 0.257
NCI-H1355 | 0.325
NCI-H322M | 0.666
NCI-H1437 | 0.233
NCI-H1755 | 0.589
NCI-H2023 | 0.198
HCC-15 | 0.152
NCI-H1793 | 0.394
PC-3 [JPC-3] | 0.434
EKVX | 0.254
LC-2-ad | 0.344
NCI-H1944 | 0.148
NCI-H1975 | 0.293
SK-LU-1 | 0.224
ABC-1 | 0.201

Same assay, conditions: first compound 1 µM

Cell Line | relative viability
NCI-H520 | 0.502
NCI-H2405 | 0.283
SW 1573 | 0.142
NCI-H1395 | 0.425
201T | 0.322
NCI-H1915 | 0.324
HCC-827 | 0.156
LXF-289 | 0.153
NCI-H2347 | 0.294
NCI-H650 | 0.226
CAL-12T | 0.221
NCI-H1651 | 0.149
EPLC-272H | 0.226
NCI-H23 | 0.259
NCI-H1792 | 0.0965
NCI-H1355 | 0.218
NCI-H322M | 0.378
NCI-H1437 | 0.2
NCI-H1755 | 0.495
NCI-H2023 | 0.107
HCC-15 | 0.132
NCI-H1793 | 0.159
PC-3 [JPC-3] | 0.374
EKVX | 0.178
LC-2-ad | 0.268
NCI-H1944 | 0.123
NCI-H1975 | 0.17
SK-LU-1 | 0.183
ABC-1 | 0.171

Compound: CC1=C(N=C(N=C1N)[C@H](CC(=O)N)NC[C@@H](C(=O)N)N)C(=O)N[C@@H]([C@H](C2=CN=CN2)OC3C(C(C(C(O3)CO)O)O)OC4C(C(C(C(O4)CO)O)OC(=O)N)O)C(=O)N[C@H](C)[C@H]([C@H](C)C(=O)N[C@@H]([C@@H](C)O)C(=O)NCCC5=NC(=CS5)C6=NC(=CS6)C(=O)NCCC[S+](C)C)O [Bleomycin] + CC(=O)c1c(C)c2cnc(Nc3ccc(N4CCNCC4)cn3)nc2n(C2CCCC2)c1=O [Palbociclib] (partner 0.5 µM)
Test: as above
Settings: first compound 0.01 µM; main component drawn
Outline: as §1

Cell Line | relative viability
NCI-H520 | 0.215
NCI-H2405 | 0.424
SW 1573 | 0.277
NCI-H1395 | 0.518
201T | 0.397
NCI-H1915 | 0.419
HCC-827 | 0.46
LXF-289 | 0.58
NCI-H2347 | 0.43
NCI-H650 | 0.282
CAL-12T | 0.309
NCI-H1651 | 0.488
EPLC-272H | 0.329
NCI-H23 | 0.311
NCI-H1792 | 0.613
NCI-H1355 | 0.402
NCI-H322M | 0.472
NCI-H1437 | 0.306
NCI-H1755 | 0.433
NCI-H2023 | 0.333
HCC-15 | 0.711
NCI-H1793 | 0.316
PC-3 [JPC-3] | 0.487
EKVX | 0.366
LC-2-ad | 0.454
NCI-H1944 | 0.228
NCI-H1975 | 0.377
SK-LU-1 | 0.356
ABC-1 | 0.467

Same assay, conditions: first compound 0.03162 µM; main component drawn

Cell Line | relative viability
NCI-H520 | 0.218
NCI-H2405 | 0.502
SW 1573 | 0.3
NCI-H1395 | 0.549
201T | 0.32
NCI-H1915 | 0.389
LXF-289 | 0.571
NCI-H2347 | 0.479
NCI-H650 | 0.34
CAL-12T | 0.365
NCI-H1651 | 0.454
EPLC-272H | 0.311
NCI-H23 | 0.251
NCI-H1792 | 0.624
NCI-H1355 | 0.382
NCI-H322M | 0.562
NCI-H1437 | 0.224
NCI-H1755 | 0.435
NCI-H2023 | 0.302
HCC-15 | 0.686
NCI-H1793 | 0.302
PC-3 [JPC-3] | 0.596
EKVX | 0.366
LC-2-ad | 0.541
NCI-H1944 | 0.188
NCI-H1975 | 0.398
SK-LU-1 | 0.461
ABC-1 | 0.822

Same assay, conditions: first compound 0.1 µM; main component drawn

Cell Line | relative viability
NCI-H520 | 0.215
NCI-H2405 | 0.544
SW 1573 | 0.265
NCI-H1395 | 0.499
201T | 0.384
NCI-H1915 | 0.332
HCC-827 | 0.611
LXF-289 | 0.606
NCI-H2347 | 0.459
NCI-H650 | 0.307
CAL-12T | 0.232
NCI-H1651 | 0.464
EPLC-272H | 0.311
NCI-H23 | 0.25
NCI-H1792 | 0.592
NCI-H1355 | 0.396
NCI-H322M | 0.484
NCI-H1437 | 0.293
NCI-H1755 | 0.457
NCI-H2023 | 0.25
HCC-15 | 0.648
NCI-H1793 | 0.313
PC-3 [JPC-3] | 0.525
EKVX | 0.299
LC-2-ad | 0.421
NCI-H1944 | 0.218
NCI-H1975 | 0.397
SK-LU-1 | 0.35
ABC-1 | 0.789

Same assay, conditions: first compound 0.3162 µM; main component drawn

Cell Line | relative viability
NCI-H520 | 0.203
NCI-H2405 | 0.346
SW 1573 | 0.144
NCI-H1395 | 0.341
201T | 0.311
NCI-H1915 | 0.173
HCC-827 | 0.243
LXF-289 | 0.324
NCI-H2347 | 0.359
NCI-H650 | 0.255
CAL-12T | 0.116
NCI-H1651 | 0.288
EPLC-272H | 0.213
NCI-H23 | 0.15
NCI-H1792 | 0.482
NCI-H1355 | 0.253
NCI-H322M | 0.428
NCI-H1437 | 0.256
NCI-H1755 | 0.408
NCI-H2023 | 0.125
HCC-15 | 0.343
NCI-H1793 | 0.216
PC-3 [JPC-3] | 0.53
EKVX | 0.209
LC-2-ad | 0.3
NCI-H1944 | 0.156
NCI-H1975 | 0.226
SK-LU-1 | 0.312
ABC-1 | 0.512

Same assay, conditions: first compound 1 µM; main component drawn

Cell Line | relative viability
NCI-H520 | 0.206
NCI-H2405 | 0.323
SW 1573 | 0.167
NCI-H1395 | 0.342
201T | 0.336
NCI-H1915 | 0.131
HCC-827 | 0.18
LXF-289 | 0.221
NCI-H2347 | 0.338
NCI-H650 | 0.2
CAL-12T | 0.192
NCI-H1651 | 0.252
EPLC-272H | 0.218
NCI-H23 | 0.152
NCI-H1792 | 0.362
NCI-H1355 | 0.221
NCI-H322M | 0.491
NCI-H1437 | 0.221
NCI-H1755 | 0.428
NCI-H2023 | 0.13
HCC-15 | 0.285
NCI-H1793 | 0.19
PC-3 [JPC-3] | 0.488
EKVX | 0.189
LC-2-ad | 0.31
NCI-H1944 | 0.13
NCI-H1975 | 0.178
SK-LU-1 | 0.332
ABC-1 | 0.433

— the supplement of paper PMC10307832
